Experiment [1] deals with human whole blood (HWB). Nature of the experiment: Effects of EP agonists on the production of IL-6 in HWB. Type of experiment: cell-based. The note with it: agonist 1-10 μM (up to 10 μM), 24 hrs. The protocol: Peripheral human whole blood (HWB) was collected from healthy volunteers into the sample tubes (nine volumes into one volume of 3.8% trisodium citrate, Becton Dickinson), and chilled at 4° C. until the experiment. HWB (50 μl) was put into the assay plate and mixed for 10 sec with plate mixer (intensity level at 4, TAITAC, Micromixer). The samples were placed for 3 min at room temperature, then 45 μl of AIM medium was added and mixed for 10 sec with plate mixer (intensity level at 4). The samples were placed for 3 min at room temperature. The mixture (100 μl) of 10-10000 nM each EP agonist and 100 μM argatroban were added to the samples, and mixed for 10 sec with plate mixer (intensity level at 4). The samples were incubated in 5% CO2 at 37° C. for 24 hrs. Then, the samples were stirred and centrifuged at 200 g for 10 minutes. The supernatants were collected, and the IL-6 concentration was measured by ELISA-Kit (Cyto screen).
The application of 1-10 μM Butaprost, an EP2 agonist, enhanced IL-6 production (FIG. 5). […] Effects of EP2 (butaprost), EP4 (11-deoxy-PGE1) and EP1/EP3 (sulprostone) agonists on the production of IL-6 in HWB was measured respectively. Each agonist was added to the HWB, and incubated in 5% CO2 at 37° C. for 24 hrs. The results represented the mean±s.d. of the results in triplicate. […]

In experiment [2] the test system is human leukemic T cells of the HSB.2 cultured line. The note with it: HSB.2 cells coexpressing EP2, EP3 and EP4; cited from earlier work.
For another experiment, the system named is fibrin formation. The experiment is described as follows: Fibrin formation in HWB culture samples during 24 hrs incubation. The arrangement: species or system human. The note with it: 100 μM.
Experiment [3] has as its system human whole blood (HWB). The experiment is described as follows: PGE2-induced IL-6 production assay using human whole blood (HWB). Particulars: 100 μM, 24 hrs incubation. Type of experiment: cell-based.
Method: Peripheral human whole blood (HWB) was collected from healthy volunteers into the sample tubes (nine volumes into one volume of 3.8% trisodium citrate, Becton Dickinson), and chilled at 4° C. until the experiment. HWB (50 μl) was put into the assay plate and mixed for 10 sec with plate mixer (intensity level at 4, TAITAC, Micromixer). The samples were placed for 3 min at room temperature, then 45 μl of AIM medium was added and mixed for 10 sec with plate mixer (intensity level at 4). The samples were placed for 3 min at room temperature. The mixture (100 μl) of 10-10000 nM PGE2 and 100 μM argatroban were added to the samples, and mixed for 10 seconds with plate mixer (intensity level at 4). The samples were incubated in 5% CO2 at 37° C. for 24 hrs. Then, the samples were stirred and centrifuged at 200 g for 10 minutes. The supernatants were collected, and the IL-6 concentration was measured by ELISA-Kit (Cyto screen).
In this experiment, we have established PGE2-induced IL-6 production assay using human whole blood (HWB). To prevent fibrin synthesis, argatroban, a thrombin inhibitor, was added to the culture samples. […] Diluted human whole blood samples were stimulated with 10-10,000 nM of PGE2 and incubated at 37° C. for 24 hrs. The IL-6 concentration in the supernatant was determined by ELISA. […]
Experiment [4] deals with ConA and PGE2 co-stimulated human whole blood. The experiment is described as follows: IL-6 production in ConA and PGE2 co-stimulated human whole blood. Type of experiment: cell-based. The method, then: Compound B (50 μl), ConA and PGE2 (50 μl, 1:1) were diluted with the AIM medium (Gibco) in the appropriate concentrations (conc.) and were placed onto 96-well culture plates (assay plates). Peripheral blood was collected from healthy volunteers (nine volumes into one volume of 3.8% trisodium citrate, Becton Dickinson). Human whole-blood samples were diluted with the same volume of AIM medium, and 100 μl of diluted-blood samples were place onto the assay plates. The final DMSO conc. of assay mixtures was 0.25%. The assay mixtures were incubated in 5% CO2 at 37° C. for 24 hrs. Then, the assay mixtures were stirred and centrifuged at 200 g for 10 minutes. The supernatants were collected, and the IL-6 concentration was measured by ELISA-Kit (Cyto screen).
PGE2 enhanced IL-6 production dose dependently from 10 to 1000 nM (FIG. 7). When blood samples were stimulated with 10, 100 and 1000 nM of PGE2, the IL-6 concentrations in the assay mixtures were 1.8˜10.8 ng/ml, 4˜20 ng/ml and 5.8˜23 ng/ml, respectively. The concentrations of PGE2 (10-1000 nM) gave sufficient IL-6 production to determine the IC50s of the EP4 antagonists. […] Diluted human whole-blood samples were stimulated with 5 μg/ml of ConA and three different concentrations of PGE2 (10-1000 nM). The IL-6 concentration in the supernatant was determined after 24 hrs of incubation at 37° C. Diluted human whole blood was co-stimulated with 5 μg/ml of ConA and 100 nM of PGE2 and incubated at 37° C. for 24 hrs. The IL-6 concentration in the supernatant was determined by ELISA.

In the next experiment the test system is human PBMC. Nature of the experiment: PGE2 stimulation of IL-6 secretion in ConA-treated human PBMC and its inhibition by EP4 antagonists (ELISA). Type of experiment: cell-based. The protocol: PBMC were stimulated with 5 μg/ml of Con A alone or with 10 nM to 1000 nM PGE2 at 37° C. for 24 hr. The secreted IL-6 in culture medium was measured by ELISA. Data are expressed as mean±s.d. (FIG. 1)
The PGE2 concentration-dependence of stimulation of IL-6 secretion by human PBMC without and with ConA-stimulation, and the inhibitory effect of Compound A. PBMC were stimulated with 5 μg/ml of Concanavalin A alone or with 10 nM to 1000 nM PGE2 at 37° C. in 5% CO2 for 24 hr. To see the effect of Compound A, 50 μM of Compound A was added simultaneously with ConA and PGE2, and incubated for 24 hr. Data in parenthesis are expressed % control of mitocondorial dehydrogenase activity. (FIG. 2)
Compound A and Compound B inhibited the IL-6 secretion in ConA-treated PBMC. (FIG. 3.) PBMC were incubated with 5 μg/ml of Con A, 100 nM PGE2 and various doses of EP4 antagonists at 37° C. for 24 hr. The secreted IL-6 in culture medium was measured by ELISA. Data are expressed as mean±s.d.
Background: ELISA stands for enzyme-linked immunosorbent assay.

The test system of the next experiment is human whole blood cells. The experiment is described as follows: IL-6 production in human whole blood cells. Type of experiment: cell-based. The note with it: application of only PGE2 to human whole blood cells. The source says: One embodiment of this invention is a more specific therapeutic targeting system to control IL-6 production. In addition, this system is a useful method for the detection of molecular target of atherosclerosis and IL-6 related disorders.

The next experiment concerns PGE2-stimulated HWB. Nature of the experiment: Effects of EP4 antagonist on the production of IL-6 in PGE2-stimulated HWB. Type of experiment: cell-based, human. Particulars: Compound B 320-40,000 nM, 24 hrs. The method, then:
Peripheral human whole blood (HWB) was collected from healthy volunteers into the sampling tubes (nine volumes into one volume of 3.8% trisodium citrate, Becton Dickinson), and chilled at 4° C. until the experiment.
Compound B (5 μl) or vehicle (AIM medium containing 0.2% DMSO) was added into 96-well culture plates. HWB (50 μl) was put into the assay plate and mixed for 10 sec with plate mixer (intensity level at 4, TAITAC, Micromixer). The samples were placed for 3 min at room temperature, and then 45 μl of AIM medium was added and mixed for 10 sec with plate mixer (intensity level at 4). The samples were placed for 3 min at room temperature. The mixture (100 μl) of 100 nM PGE2 and 100 μM argatroban was added to the samples, and mixed for 10 sec with plate mixer (intensity level at 4). The samples were incubated in 5% CO2 at 37° C. for 24 hrs. Then, the samples were stirred and centrifuged at 200 g for 10 minutes. The supernatants were collected, and the IL-6 concentration was measured by ELISA-Kit (Cyto screen).
Compound B inhibited the PGE2-stimulated IL-6 production in a dose dependent manner (FIG. 6). Diluted human whole blood samples containing Compound B were stimulated with 10-10,000 nM of PGE2 and incubated at 37° C. for 24 hrs. The IL-6 concentration in the supernatant was determined by ELISA. […]

Molecules are shown by their SMILES. Values joined by “and” are separate entries in the source; they are usually repeats but may differ in a detail not shown here. Equal entries are not always repeated.

Method for fibrin formation: In this experiment, we have established PGE2-induced IL-6 production assay using human whole blood (HWB). To prevent fibrin synthesis, argatroban, a thrombin inhibitor, was added to the culture samples. […] Diluted human whole blood samples were stimulated with 10-10,000 nM of PGE2 and incubated at 37° C. for 24 hrs. The IL-6 concentration in the supernatant was determined by ELISA. The results represented the mean±s.d. from one representative experiment performed in triplicate.

Take `CCCCC[C@H](O)/C=C/[C@H]1CCC(=O)[C@@H]1CCCCCCC(=O)O` [11-deoxy-PGE1]: in the experiment on human whole blood (HWB) [1], the IL-6 production entry was “enhanced”.

As for `CCCC(=O)Nc1ncnc2c1ncn2[C@@H]1O[C@@H]2COP(=O)(O)O[C@H]2[C@H]1OC(=O)CCC` [dibutyryl-cAMP], the IL-6 production entry in experiment [2] is given as “mimicked”.

With `CC1CNc2c(cccc2S(=O)(=O)N[C@@H](CCCNC(=N)N)C(=O)N2CC[C@@H](C)C[C@@H]2C(=O)O)C1` (some centres unmarked) [argatroban], the “fibrin formation in the blood samples” value in the experiment on fibrin formation was “inhibited”. For the same compound, the “amount of IL-6 production” value with human whole blood (HWB) [3] is given as “did not affect”.

Consider `CCc1nc2cc(C(C)=O)ccc2n1-c1ccc(CCNC(=O)NS(=O)(=O)c2ccc(C)cc2)cc1` [Compound C, N-[({2-[4-(5-acetyl-2-ethyl-1H-benzimidazol-1-yl)phenyl]ethyl}amino)carbonyl]-4-methylbenzenesulfonamide], for which the “mode of inhibition of IL-6 production” value in experiment [4] (ConA and PGE2 co-stimulated HWB) is recorded as “competitively with PGE2”. Further, in experiment [4] (ConA and PGE2 co-stimulated HWB, Compound C 16-50,000 nM), the “inhibition of IL-6 production” value is given as “dose-dependent inhibition”.

In the case of `CCCCC[C@H](O)/C=C/[C@H]1[C@H](O)CC(=O)[C@@H]1C/C=C\CCCC(=O)O` [PGE2, Prostaglandin E2], the “secretion of IL-6” value in the experiment with human PBMC (ConA unstimulated PBMC, 10-1000 nM PGE2) is “did not affect”. The “IL-6 secretion further enhanced, compared with ConA stimulation without PGE2” value in the experiment on human PBMC (PBMC, 5 μg/ml ConA, 24 hr, […] PGE2 (so in the source)) was 3.5 fold and 5.7 fold and 10.1 fold. In addition, the IL-6 production result was “enhanced” in experiment [4] (ConA-stimulated HWB, PGE2 10 to 1000 nM); “enhanced” in experiment [2]; “enhanced IL-6 production to a great extent” in the experiment with human whole blood cells.

Regarding `O=C(O)c1cccc(C[C@@H]2CCCC=C2c2nc(-c3ccccc3)c(-c3ccccc3)o2)c1` [Compound B, 3-{[(1S)-2-(4,5-diphenyl-1,3-oxazol-2-yl)-2-cyclohexen-1-yl]methyl}benzoic acid], the IC50 – broadly, the concentration that gives 50% inhibition – with human PBMC (Homo sapiens, PBMC stimulated with 5 μg/ml ConA and 100 nM PGE2 for 24 hr, read-out: IC50 of inhibition of IL-6 production) was 32 nM. The “PGE2-stimulated IL-6 production” value in the experiment on PGE2-stimulated HWB is recorded as “inhibited”.

In the case of `CCCC1([C@H](O)C/C=C/[C@H]2[C@H](O)CC(=O)[C@@H]2CCCCCCC(=O)OC)CCC1` [Butaprost], in the experiment on human whole blood (HWB) [1], the IL-6 production result is given as “enhanced”.

Values taken from US7928119B2, “Use of EP4 receptor ligands in the treatment of IL-6 involved diseases” (Pfizer Inc., priority 2002, dated 2011).
